The source of these data is patent US10821093B2, “Antibacterial microelement chelates and the use thereof in animal feeds” (priority 2012, dated 2020).

For one experiment, the system named is Escherichia coli. Nature of the experiment: MIC, liquid culture dilution (single chelates and cross-dilution combinations). It is filed as cell-based.
In a further experiment the test system is Salmonella enterica. The description is as above. It is filed as cell-based, Salmonella enterica subp. Enterica serovar enteritidis.
For the next experiment, the system named is Staphylococcus aureus. Nature of the experiment: MIC, liquid culture dilution. It is filed as cell-based.
In another experiment the test system is Streptococcus agalactiae. Nature of the experiment: MIC, liquid culture dilution. The format is cell-based.
The test system of the next experiment is Clostridium perfringens. It is filed as cell-based.
In experiment [1] the test system is Brachyspira hyodysenteriae. As to the kind of experiment: MIC (single chelates and combinations).

Consider `NC(=O)CC(N)C(=O)[O][Cu]([NH3+])([NH3+])[O]C(=O)C(N)CC(N)=O` (stereo not drawn) [Cu diammine bis-asparaginate], for which the “Minimal inhibitory concentration (MIC)” value with Escherichia coli was determined as 1025 ppm; with Salmonella enterica it was 2050 ppm; in the experiment with Staphylococcus aureus, 1025 ppm; in the experiment with Streptococcus agalactiae, 16 ppm; in the experiment on Clostridium perfringens it was 32 ppm.
Regarding `N.N.NC(CCC(=O)O)C(=O)[O-].NC(CCC(=O)O)C(=O)[O-].[Cu+2]` (stereo not drawn) [Cu diammine bis-glutamate], the “Minimal inhibitory concentration (MIC)” value is 387 ppm in the experiment on Staphylococcus aureus, 24 ppm in the experiment with Streptococcus agalactiae and 97 ppm in the experiment with Clostridium perfringens.
For the compound `O=C(O)CN1CCN(CC(=O)O)CC(=O)[O][Cu][O]C(=O)C1` [Cu ethylenediamine tetraacetic acid], the “Minimal inhibitory concentration (MIC)” value came out at 160 ppm in the experiment on Clostridium perfringens and 320 ppm in experiment [1].
The like results for `O.O.O=C([O-])CN(CCN(CC(=O)[O-])CC(=O)O)CC(=O)O.[Cu+2]` [Cu(H2O)2-ethylenediamine tetraacetic acid] were, in that order, 60 ppm and 100 ppm.
For `NC(=O)C[C@H](N)C(=O)[O-].NC(=O)C[C@H](N)C(=O)[O-].[Zn+2]` [Zn bis-asparaginate], the entries for the “Minimal inhibitory concentration (MIC)” value in the experiment on Staphylococcus aureus, in the experiment on Streptococcus agalactiae and in the experiment with Clostridium perfringens were 26 ppm, 51 ppm and 412 ppm, respectively.
On to `O=C([O-])c1ccccc1.O=C([O-])c1ccccc1.[Zn+2]` [Zn bis-benzoate], for which the “Minimal inhibitory concentration (MIC)” value in the experiment with Escherichia coli, with Salmonella enterica and in the experiment with Clostridium perfringens was more than 4000 ppm throughout.
Regarding `NC(Cc1cnc[nH]1)C(=O)[O-].NC(Cc1cnc[nH]1)C(=O)[O-].[Zn+2]` (stereo not drawn) [Zn bis-histidinate], the “Minimal inhibitory concentration (MIC)” value in the experiment with Escherichia coli is given as more than 4000 ppm; in the experiment on Salmonella enterica it was more than 4000 ppm; in the experiment with Staphylococcus aureus, more than 4000 ppm; in the experiment on Streptococcus agalactiae, 4 ppm; in the experiment on Clostridium perfringens it was 650 ppm.
Turning to `O=C(O)c1ccccc1[O-].O=C(O)c1ccccc1[O-].[Zn+2]` [Zn bis-salycilate], the “Minimal inhibitory concentration (MIC)” value in the experiment with Escherichia coli, in the experiment on Salmonella enterica and with Clostridium perfringens was more than 4000 ppm in each case.
Turning to `[NH2][Zn]1([NH2])[O]C(=O)CN(CC(=O)O)CCN(CC(=O)O)CC(=O)[O]1` [Zn diamino ethylenediamine tetraacetic acid], the “Minimal inhibitory concentration (MIC)” value is listed as 100 ppm in the experiment with Clostridium perfringens and more than 4000 ppm in experiment [1].
Regarding `N.N.NC(CC(=O)O)C(=O)[O-].NC(CC(=O)O)C(=O)[O-].[Zn+2]` (stereo not drawn) [Zn diammine bis-aspartate], the figures for the “Minimal inhibitory concentration (MIC)” value in the experiment with Escherichia coli and with Salmonella enterica were 123 ppm and 247 ppm, respectively.
Turning to `N.N.NC(CCC(=O)O)C(=O)[O-].NC(CCC(=O)O)C(=O)[O-].[Zn+2]` (stereo not drawn) [Zn diammine bis-glutamate], the results for the “Minimal inhibitory concentration (MIC)” value in the experiment with Staphylococcus aureus, in the experiment on Streptococcus agalactiae and with Clostridium perfringens were 42 ppm, 21 ppm and 334 ppm, respectively.
Regarding `O=C([O-])CN(CCN(CC(=O)O)CC(=O)O)CC(=O)[O-].[Zn+2]` [Zn ethylenediamine-tetraacetic acid], the “Minimal inhibitory concentration (MIC)” value is reported as 1000 ppm in the experiment on Clostridium perfringens and 450 ppm in experiment [1].
Take `N[C@@H](CC(=O)[O-])C(=O)[O-].[Zn+2]` [Zn mono-aspartate]: the “Minimal inhibitory concentration (MIC)” value with Escherichia coli and in the experiment on Salmonella enterica was 74 ppm each time.
Regarding `NC(CCC(=O)[O-])C(=O)[O-].[Zn+2]` (stereo not drawn) [Zn mono-glutamate], the “Minimal inhibitory concentration (MIC)” value with Escherichia coli worked out at 70 ppm; in the experiment on Staphylococcus aureus it was 36 ppm; in the experiment with Streptococcus agalactiae, 18 ppm; in the experiment on Clostridium perfringens it was 475 ppm.
For `O=C([O-])CN(CC(=O)[O-])CC(=O)O.[Zn+2]` [Zn nitrolotriacetate], the “Minimal inhibitory concentration (MIC)” value in the experiment on Escherichia coli and in the experiment on Salmonella enterica was 40 ppm each time.
For the compound `CCCC(=O)[O-].CCCC(=O)[O-].O.[Zn+2]` [Zn(H2O) bis-butyrate], the “Minimal inhibitory concentration (MIC)” value in the experiment with Escherichia coli and in the experiment with Salmonella enterica was 110 ppm each time.
Regarding `CCC(=O)[O-].CCC(=O)[O-].O.[Zn+2]` [Zn(H2O) bis-propionate], the “Minimal inhibitory concentration (MIC)” value with Escherichia coli and in the experiment with Salmonella enterica was 160 ppm each time.
Regarding `CCCCC(=O)[O-].CCCCC(=O)[O-].O.[Zn+2]` [Zn(H2O) bis-valerianate], the “Minimal inhibitory concentration (MIC)” value in the experiment on Escherichia coli and in the experiment with Salmonella enterica was 120 ppm each time.
Turning to Cu diaminonitrolo triacetic acid, the “Minimal inhibitory concentration (MIC)” value was determined as 120 ppm in the experiment on Clostridium perfringens and 200 ppm in experiment [1].
Consider Cu diammine asparaginate, for which the “Minimal inhibitory concentration (MIC)” value in the experiment on Escherichia coli is recorded as 620 ppm; in the experiment on Salmonella enterica, 620 ppm; in the experiment on Staphylococcus aureus, 620 ppm; in the experiment with Streptococcus agalactiae, 20 ppm; in the experiment with Clostridium perfringens, 38 ppm.
As for Cu diammine glutamate, the results for the “Minimal inhibitory concentration (MIC)” value in the experiment with Escherichia coli, in the experiment on Streptococcus agalactiae and in the experiment with Clostridium perfringens were 688 ppm, 11 ppm and 43 ppm, respectively.
As for Cu diammine tri-asparaginate, the “Minimal inhibitory concentration (MIC)” value in the experiment with Escherichia coli is recorded as 1400 ppm; with Salmonella enterica, more than 4000 ppm; with Staphylococcus aureus, 1400 ppm; in the experiment on Streptococcus agalactiae, 43 ppm; in the experiment with Clostridium perfringens, 44 ppm.
Take Cu diammine tri-glutamate: the “Minimal inhibitory concentration (MIC)” value with Staphylococcus aureus is recorded as 487 ppm; in the experiment on Streptococcus agalactiae, 8 ppm; in the experiment with Clostridium perfringens, 30 ppm.
Consider Cu nitrolo triacetic acid, for which the “Minimal inhibitory concentration (MIC)” value in the experiment with Clostridium perfringens is more than 4000 ppm; in experiment [1] it was 450 ppm.
The like results for “Zn (H2O)2-ethylenediamine tetraacetic acid” were, in that order, 400 ppm and 320 ppm.
As to Zn asparaginate, the “Minimal inhibitory concentration (MIC)” value in the experiment with Staphylococcus aureus amounted to 18 ppm; in the experiment with Streptococcus agalactiae, 37 ppm; in the experiment on Clostridium perfringens it was 297 ppm.
As for Zn diaminonitrolo triacetic acid, the “Minimal inhibitory concentration (MIC)” value with Clostridium perfringens was 400 ppm; in experiment [1], 600 ppm.
For the compound Zn diammine asparaginate, the “Minimal inhibitory concentration (MIC)” value was determined as 46 ppm with Staphylococcus aureus, 23 ppm with Streptococcus agalactiae and 369 ppm in the experiment with Clostridium perfringens.
Zn diammine aspartate: the entries for the “Minimal inhibitory concentration (MIC)” value in the experiment on Escherichia coli and in the experiment on Salmonella enterica were 92 ppm and 184 ppm, respectively.
Regarding Zn diammine bis-asparaginate, the “Minimal inhibitory concentration (MIC)” value in the experiment with Staphylococcus aureus was found to be 62 ppm; in the experiment with Streptococcus agalactiae, 15 ppm; in the experiment with Clostridium perfringens it was 494 ppm.
Zn diammine bis-histidinate: the “Minimal inhibitory concentration (MIC)” value with Escherichia coli is listed as more than 4000 ppm; with Salmonella enterica it was more than 4000 ppm; in the experiment with Staphylococcus aureus it was more than 4000 ppm; in the experiment on Streptococcus agalactiae, 12 ppm; in the experiment on Clostridium perfringens, 1950 ppm.
For Zn diammine citrate, the “Minimal inhibitory concentration (MIC)” value in the experiment with Escherichia coli is given as 48 ppm; in the experiment with Salmonella enterica it was 98 ppm; with Staphylococcus aureus it was 49 ppm; in the experiment with Streptococcus agalactiae, 49 ppm.
Zn diammine glutamate: the “Minimal inhibitory concentration (MIC)” value in the experiment with Escherichia coli worked out at 167 ppm; in the experiment with Staphylococcus aureus, 61 ppm; in the experiment on Streptococcus agalactiae, 15 ppm; with Clostridium perfringens, 245 ppm.
As for Zn diammine tri-asparaginate, the “Minimal inhibitory concentration (MIC)” value in the experiment on Staphylococcus aureus worked out at 114 ppm; in the experiment on Streptococcus agalactiae it was 14 ppm; in the experiment on Clostridium perfringens it was 456 ppm.
Take Zn diammine tri-aspartate: the “Minimal inhibitory concentration (MIC)” value in the experiment with Escherichia coli is recorded as 114 ppm; with Salmonella enterica, 228 ppm.
For Zn tri-asparaginate, the “Minimal inhibitory concentration (MIC)” value in the experiment with Staphylococcus aureus is on record as 18 ppm; in the experiment with Streptococcus agalactiae, 19 ppm; in the experiment with Clostridium perfringens it was 450 ppm.
The like results for Zn triammine tri-glutamate were, in that order, 58 ppm, 15 ppm and 469 ppm.
As to Zn(H2O) bis-aspartate, the “Minimal inhibitory concentration (MIC)” value with Escherichia coli came out at 103 ppm.
For Zn(H2O) bis-glutamate, the “Minimal inhibitory concentration (MIC)” value in the experiment with Staphylococcus aureus turned out to be 21 ppm; with Streptococcus agalactiae, 10 ppm; in the experiment on Clostridium perfringens it was 331 ppm.
Consider Zn(H2O) tri-aspartate, for which the entries for the “Minimal inhibitory concentration (MIC)” value with Escherichia coli and in the experiment with Salmonella enterica were 75 ppm and 70 ppm, respectively.
With Zn(H2O) tri-glutamate, the “Minimal inhibitory concentration (MIC)” value with Escherichia coli was found to be 70 ppm; in the experiment with Staphylococcus aureus it was 35 ppm; in the experiment with Streptococcus agalactiae, 17 ppm; in the experiment with Clostridium perfringens, 281 ppm.
With “Zn(NH4)4(glycine)2 [Zn tetraammine bis-glycinate]”, the “Minimal inhibitory concentration (MIC)” value in the experiment with Escherichia coli and with Salmonella enterica was 140 ppm throughout.
